Measurements as given in patent publication US20190274981A1, “OLEANOLIC ACID ENHANCES MESENCHYMAL STROMAL CELL OSTEOGENIC POTENTIAL BY INHIBITION OF NOTCH SIGNALING” (Board of Supervisors of Louisiana State University and …, priority 2018, published 2019).
Entries after “also recorded” stand apart in the source; their conditions may differ.

Legend:
MSCs [1] = experiment: Cell viability assay (MTT); assay type: cell-based, human; details: 12 hours
Method: (§1) Cell culture and treatment: The human MSCs were purchased from Lonza. Oleanolic acid was obtained from Sigma-Aldrich (Aldrich-5504). A 100 mM solution of OA was prepared in dimethyl sulfoxide (DMSO), and all test concentrations were prepared by diluting the stock solution in cell culture medium. […] After expansion, cells were exposed to media containing OA and/or BMP2 for certain days. […] At the end, cells were harvested at different time points for analyses as described below.
Cell viability assay: MSC viability was measured using MTT (3-(4, 5-dimethylthiazole-2-yl)-2, 5-diphenyl tetrazolium bromide) based in vitro toxicology assay kit (Sigma, St. Louis, Mo., USA). Briefly, cells were seeded in 96-well plates. After growing into 50-60% confluence, cells were exposed to various concentrations of OA for 12 hours, then the supernatant was discarded, and cells were treated with 0.5 mg/ml MTT staining solution for another four hours. After incubation, the supernatant was removed and 50 μl of solubilization buffer provided by the Sigma kit with 0.5% DMSO was added. DMSO was added to ensure total solubility of the formazan crystals. Plates were shaken for two minutes, and the absorbance recorded at 590 nm on an automated microtiter plate reader. The percent viability was expressed as a percentage of that in the vehicle control (with subtraction of background absorbance).

MSCs [2] = experiment: MSC osteogenic differentiation assay, real time RT-PCR of osteogenic markers; assay type: cell-based, human; details: OA 10 and 20 μM, seven days, vs DMSO treated control MSCs
Method: as §1
MSC osteogenic differentiation assay: Osteogenic differentiation assays of MSCs were performed using the Osteogenic differentiation bulletKit® (Lonza). MSCs were cultured at 200,000 cells/well in 6-well plates to confluence. Stem cell growth media was then replaced with osteogenic media supplied with or without OA and BMP2. After seven days of culture, alkaline phosphatase (ALP) staining, RNA, and protein isolation were performed as described in our published protocols.
(§2) Real time RT-PCR: cDNA was synthesized from 1 μg total RNA using the SuperScript III reverse transcriptase kit (Invitrogen) in a final volume of 20 μl. Primers were designed with the IDT SCI primer design tool (Integrated DNA Technologies, San Diego, Calif.). RT-PCR experiments were performed with a Bio-Rad C1000 thermal cycler (Bio-Rad, Hercules, Calif.), and real-time PCR experiments were performed with an ABI prism 7500 (Applied Biosystems, Grand Island, N.Y.) in triplicate. Sequence for each primer pair were: Hes1, forward primer 5′-[…]-3′, reverse primer 5′-[…]-3′; ALP, forward primer 5′-[…]-3′, reverse primer 5′-[…] […]-3′; Runx2, forward primer 5′-[…]-3′, reverse primer 5′-[…]-3′; Osteocalcin (OC), forward primer 5′-[…]-3′, reverse primer 5′-[…]-3′; Osteopontin (OPN), forward primer 5′-[…]-3′, reverse primer 5′-[…]-3′; Type I collagen (Col1a1), forward primer 5′-[…]-3′, reverse primer 5′-[…]-3′; β-actin, forward primer 5′-[…]-3′; reverse primer 5′-[…] […]-3′. Samples were analyzed in triplicate, and the raw data consisted of PCR cycle numbers required to reach a fluorescence threshold level. The relative expression level of target genes was normalized to (β-actin gene.

MSCs [3] = experiment: MSC osteogenic differentiation assay, ALP staining; assay type: cell-based, human
Method: Cell culture and treatment: The human MSCs were purchased from Lonza. Oleanolic acid was obtained from Sigma-Aldrich (Aldrich-5504). A 100 mM solution of OA was prepared in dimethyl sulfoxide (DMSO), and all test concentrations were prepared by diluting the stock solution in cell culture medium. […] At the end, cells were harvested at different time points for analyses as described below.
MSC osteogenic differentiation assay: Osteogenic differentiation assays of MSCs were performed using the Osteogenic differentiation bulletKit® (Lonza). MSCs were cultured at 200,000 cells/well in 6-well plates to confluence. […] After seven days of culture, alkaline phosphatase (ALP) staining, RNA, and protein isolation were performed as described in our published protocols.

Notch signaling = experiment: Notch responsive RBPJ-Luc luciferase assay; assay type: cell-based, human; details: MSCs, 0, 10 μM and 20 μM OA, 48 hours
Method: Luciferase assay: 80% confluence MSCs were transfected with Notch responsive RBPJ-Luc and SV40-Renilla-Luc (Promega) in the presence of Lipofectamine 2000 (Invitrogen) followed by OA treatment. At 24 hours after transfection and treatment, lysates were analyzed with a Dual Luciferase Assay Kit (Promega).
The inventor has identified the RBPjk-dependent Notch pathway as an important inducer of MSC proliferation, and an inhibitor of MSC differentiation during mouse limb-bud and postnatal bone development. In this study, the inventor further tested whether Notch signaling is also involved in OA-mediated osteogenesis. To do so, MSCs were first transfected with the RBPjk-dependent NOTCH-responsive luciferase reporter, and then cultured in medium containing 0, 10 μM and 20 μM OA for 48 hours. […] Moreover, down-regulation of Notch target gene Hes1 expression was also observed in OA treated MSCs (FIG. 1E), which further confirmed the inhibitory effect of OA on Notch signaling.

Notch target gene Hes1 = experiment: Real time PCR of Notch target gene Hes1; assay type: cell-based, human; details: OA treated MSCs, day 7, vs DMSO treated control
Method: as §2

NICD = experiment: Western blot of NICD; assay type: cell-based, human; details: OA treated MSCs, day 3
phospho-smad1/5/8 = experiment: RT-PCR and western blot of phospho-smad1/5/8; assay type: cell-based, human; details: MSCs
Method: Real time RT-PCR: cDNA was synthesized from 1 μg total RNA using the SuperScript III reverse transcriptase kit (Invitrogen) in a final volume of 20 μl. Primers were designed with the IDT SCI primer design tool (Integrated DNA Technologies, San Diego, Calif.). RT-PCR experiments were performed with a Bio-Rad C1000 thermal cycler (Bio-Rad, Hercules, Calif.), and real-time PCR experiments were performed with an ABI prism 7500 (Applied Biosystems, Grand Island, N.Y.) in triplicate. […] Samples were analyzed in triplicate, and the raw data consisted of PCR cycle numbers required to reach a fluorescence threshold level. The relative expression level of target genes was normalized to (β-actin gene.
Western blot analysis: MSCs cultured with or without OA and BMP2 treatment were lysed in RIPA buffer (10 mM Tris-HCI, 1 mM EDTA, 1 sodium dodecyl sulfate [SDS], 1% NP-40, 1:100 proteinase inhibitor cocktail, 50 mM β-glycerophosphate, 50 mM sodium fluoride). The samples were separated on a 10% SDS polyacrylamide gel and transferred to polyvinylidene difluoride (PVDF) membranes with a semi-dry transfer apparatus (Bio-Rad). The membranes were blotted with 5% dehydrated milk for two hours, and then, incubated with primary antibodies overnight. […]

MSCs [4] = experiment: Lentivirus-mediated Notch activation (NICD1 overexpression) in OA treated MSCs; assay type: cell-based, human
MSC/HA pellet = experiment: In vivo ectopic bone-formation assay; details: MSCs with 20 μM OA, subcutaneous in nude mice, six weeks
Method: In vivo ectopic bone-formation assay: All animal studies were reviewed and approved by the Animal Ethics Committee of Louisiana State University Health Sciences Center. 1.0×10^6 total MSCs were re-suspended in 80 μl of MSC growth media containing 20 μM OA and gently mixed with 50 mg of hydroxyapatite (HA) powder (Himed). The composites were then centrifuged for two minutes at 200 rpm to form a MSC/HA pellet. For ectopic bone formation surgery, ten 8-week-old NOD.CB17^−Prkdescid/J mice (Charles River) (up to 2 implants for each animal) were anesthetized and the dorsal skin was cleaned with 70% ethanol. Two incisions of ˜1 cm in length were performed on the opposite flanks of the back, and then a pocket was formed by blunt dissection. Finally the MSC/HA pellets were implanted. Six weeks post-surgery, transplanted BMSC/HA pellets were harvested for gross observation and Masson's trichrome staining. […] All animal work was performed in accordance with institution approved guidelines.
MSCs were first dissolved in PBS containing 20 μM OA, then mixed with HA ceramic powder, and centrifuged into MSC/HA pellets prior to subcutaneous transplantation into nude mice. After six weeks of growth and differentiation, the pellets were harvested for gross observation, Masson's trichrome and immunohistochemistry staining (FIG. 4A).

normal cells = details: cited from earlier work

Compound: CC1(C)CC[C@]2(C(=O)O)CC[C@]3(C)C(=CC[C@@H]4[C@@]5(C)CC[C@H](O)C(C)(C)[C@@H]5CC[C@]43C)[C@@H]2C1 [OA, (3β)-3-hydroxyolean-12-en-28-oic acid]
- cell death in cell viability assay (MSCs [1]; OA 10 μM): no cell death
- cell death in cell viability assay (MSCs [1]; OA 20 μM): no cell death
- cell death in cell viability assay (MSCs [1]; OA 30 μM): significant cell death
- ALP expression (early osteogenic marker) (MSCs [2]): enhanced expression
- Col1a1 expression (early osteogenic marker) (MSCs [2]): enhanced expression
- OC expression (later osteogenic marker) (MSCs [2]): remained unchanged
- OPN expression (later osteogenic marker) (MSCs [2]): remained unchanged
- Runx2 expression (early osteogenic marker) (MSCs [2]): enhanced expression
- ALP activity (ALP staining) (MSCs [3]; OA 20 μM and/or BMP2 200 ng/ml, seven days, osteogenic medium): significant increase; also recorded: relative weak ALP staining
- ALP staining (MSC osteogenic differentiation) (MSCs [3]; OA 10 and 20 μM, seven days): dose dependent increase
- osteogenic nodule formation (MSCs [3]; OA treated MSCs at day 7, maximal staining at 20 μM): increase in osteogenic nodule formation
- Notch-responsive luciferase activity (Notch signaling): inhibited Notch-responsive luciferase activity dose dependently
- Notch target gene Hes1 expression (Notch target gene Hes1): down-regulation
- expression of NICD (western blot) (NICD): significantly reduced
- gene expression of p-smad1/5/8 (RT-PCR) (phospho-smad1/5/8; day 7, OA 20 μM, BMP2 200 ng/ml): did not show any effects
- p-smad1/5/8 expression (western blot) (phospho-smad1/5/8; day 7, control vs OA treated): no significant difference
- OA-induced ALP staining under overexpression of NICD1 (MSCs [4]; NICD1 lentivirus infected MSCs, OA, day 7): totally blocked
- expression of ALP, Runx2 and Col1a1 in Notch activated MSCs with OA (MSCs [4]; NICD1 lentivirus, RT-PCR, day 7, vs control or OA treated MSCs): significantly reduced
- increase of type I collagen bone matrix (blue) in the pellet area vs untreated MSCs (MSC/HA pellet): approximately 4 fold
- pellet area stained blue (type I collagen bone matrix, Masson's trichrome) (MSC/HA pellet): 30%
- cytotoxicity to normal cells (normal cells): no significant cytotoxicity
